By IC50 is commonly meant the point on the concentration scale where inhibition reaches its midpoint. As a reminder, the viability, T/C is the result in the treated group divided by that in the control group, in per cent.

Values joined by “and” are separate entries in the source; they are usually repeats but may differ in a detail not shown here. Identical values can stand only once. Some results are limits rather than exact numbers.

This experiment relates to K24384-001-R-PDC complex spheroid growth. Put plainly: Anticancer human tumor K24384-001-R-PDC patient-derived pancreatic adenocarcinoma cell line growth inhibition [AhR]. Particulars: for viability, T/C: stronger effect = lower value. Summed up:
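Agents were dosed in half-log steps down from roughly clinical Cmax, or from 10 microM where Cmax was unknown, alone and with AhR antagonists. Read-out: percent test/control growth of tumor spheroids containing HUVEC and MSC stromal cells.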

The mark [1] stands for this setting: curve of first compound, second compound 0.1 µM.
[2] abbreviates: curve of first compound, second compound 0.316 µM.
Where [3] appears, read: curve of first compound, second compound 1 µM.
Where [4] appears, read: curve of first compound, second compound 3.16 µM.
[5] abbreviates: curve of first compound, second compound 10 µM.
[6] abbreviates: second compound 0.1 µM, first compound 0.0316 µM.
The mark [7] stands for this setting: second compound 0.1 µM, first compound 0.1 µM.
Where [8] appears, read: second compound 0.1 µM, first compound 0.316 µM.
Setting [9] is: second compound 0.1 µM, first compound 1 µM.
[10] abbreviates: second compound 0.1 µM, first compound 3.16 µM.
The mark [11] stands for this setting: second compound 0.1 µM, first compound 10 µM.
The mark [12] stands for this setting: second compound 0.316 µM, first compound 0.0316 µM.
Where [13] appears, read: second compound 0.316 µM, first compound 0.1 µM.
Setting [14] is: second compound 0.316 µM, first compound 0.316 µM.
The mark [15] stands for this setting: second compound 0.316 µM, first compound 1 µM.
[16] abbreviates: second compound 0.316 µM, first compound 3.16 µM.
Setting [17] is: second compound 0.316 µM, first compound 10 µM.
[18] abbreviates: second compound 1 µM, first compound 0.0316 µM.
Where [19] appears, read: second compound 1 µM, first compound 0.1 µM.
[20] abbreviates: second compound 1 µM, first compound 0.316 µM.
[21] abbreviates: second compound 1 µM, first compound 1 µM.
Where [22] appears, read: second compound 1 µM, first compound 3.16 µM.
[23] abbreviates: second compound 1 µM, first compound 10 µM.
Where [24] appears, read: second compound 3.16 µM, first compound 0.0316 µM.
Where [25] appears, read: second compound 3.16 µM, first compound 0.1 µM.
Setting [26] is: second compound 3.16 µM, first compound 0.316 µM.
Setting [27] is: second compound 3.16 µM, first compound 1 µM.
Where [28] appears, read: second compound 3.16 µM, first compound 3.16 µM.
Where [29] appears, read: second compound 3.16 µM, first compound 10 µM.
[30] abbreviates: second compound 10 µM, first compound 0.0316 µM.
The mark [31] stands for this setting: second compound 10 µM, first compound 0.1 µM.
Where [32] appears, read: second compound 10 µM, first compound 0.316 µM.
[33] abbreviates: second compound 10 µM, first compound 1 µM.
[34] abbreviates: second compound 10 µM, first compound 3.16 µM.
Where [35] appears, read: second compound 10 µM, first compound 10 µM.
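Throughout, for viability, T/C: percent of DMSO vehicle-treated spheroid viability set as 100%.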

Take `Nc1ccn(C2OC(CO)C(O)C2(F)F)c(=O)n1` (stereo unspecified) + Cc1ccccc1N=Nc1ccc(NC(=O)c2ccnn2C)c(C)c1: the IC50 was 109 nM under setting [1]; 168 nM under setting [2]; 164 nM under setting [3]; 184 nM under setting [4]; 493 nM under setting [5]. In addition, the viability, T/C under setting [6] was 67.6%; the viability, T/C under setting [7] was 51.8%; the viability, T/C under setting [8] is 35.9%; the viability, T/C under setting [9] is 29.9%; the viability, T/C under setting [10] was 22.9%; the viability, T/C under setting [11] was 20.6%. The viability, T/C by setting is: under setting [12], 61.8%; under setting [13], 53.7%; under setting [14], 44.5%; under setting [15], 28%; under setting [16], 19.2%; under setting [17], 19.7%. Moreover, the viability, T/C is, setting by setting: under setting [18], 67.6%; under setting [19], 57.4%; under setting [20], 40.6%; under setting [21], 25.8%; under setting [22], 21.2%; under setting [23], 15.1%. Moreover, the viability, T/C was 58% under setting [24]; 60.4% under setting [25]; 41.9% under setting [26]; 25.9% under setting [27]; 20.5% under setting [28]; 17.1% under setting [29]. Moreover, the viability, T/C was 69.3% under setting [30]; 63.2% under setting [31]; 60% under setting [32]; 35.3% under setting [33]; 28.7% under setting [34]; 20.1% under setting [35].

Consider `Cn1ncnc1C1c2n[nH]c(=O)c3cc(F)cc(c23)NC1c1ccc(F)cc1` (stereo unspecified), for which the viability, T/C by setting is: (compound 0.000316 µM) 104% and 93.7% and 94.2%; (compound 0.001 µM) 117% and 105% and 102%; (compound 0.00316 µM) 93.1% and 104% (2×); (compound 0.01 µM) 91.7% and 102% and 105%; (compound 0.0316 µM) 97% and 97.8% and 98.7%; (compound 0.1 µM) 82% and 81.5% and 75.4%. Where the note is “curve of compound”, the IC50 was greater than 100 nM.

`COc1cccc2c1C(=O)c1c(O)c3c(c(O)c1C2=O)CC(O)(C(=O)CO)CC3OC1CC(N)C(O)C(C)O1` (stereo unspecified) + Cc1cncc(-c2nc(NCCc3c[nH]c4ccccc34)c3ncn(C(C)C)c3n2)c1: the IC50 is 43.2 nM under setting [1]; less than 31.6 nM under setting [2]; 42.2 nM under setting [3]; less than 31.6 nM under setting [4]; less than 31.6 nM under setting [5]. Further, the viability, T/C reads like this: under setting [6], 56.2%; under setting [7], 32.3%; under setting [8], 22%; under setting [9], 6.38%; under setting [10], 2.85%; under setting [11], 7.5%. Besides, the viability, T/C runs as follows: under setting [12], 43.8%; under setting [13], 39.4%; under setting [14], 18.6%; under setting [15], 4.66%; under setting [16], 4.69%; under setting [17], 7.35%. The viability, T/C by setting is: under setting [18], 53.4%; under setting [19], 39.8%; under setting [20], 14.4%; under setting [21], 4.5%; under setting [22], 2.69%; under setting [23], 5.17%. The viability, T/C was 41.2% under setting [24]; 35.8% under setting [25]; 10.2% under setting [26]; 2.01% under setting [27]; 3.75% under setting [28]; 5.63% under setting [29]. In addition, the viability, T/C runs as follows: under setting [30], 6.65%; under setting [31], 10.3%; under setting [32], 4.38%; under setting [33], 1.31%; under setting [34], 1.89%; under setting [35], 2.29%.

As to `CCN(c1cc(-c2ccc(CN3CCOCC3)cc2)cc(C(=O)NCc2c(C)cc(C)[nH]c2=O)c1C)C1CCOCC1`, the viability, T/C was 108% and 104% and 103% (compound 0.00949 µM); 116% and 114% and 95.3% (compound 0.03 µM); 120% and 111% and 97.5% (compound 0.0949 µM); 87.1% and 95.9% and 103% (compound 0.3 µM); 98.3% and 89% and 90% (compound 0.949 µM); 101% (2×) and 87.2% (compound 3 µM). Also, the IC50 (curve of compound) was greater than 3000 nM.

For the compound `COc1cc(C2c3cc4c(cc3C(OC3OC5COC(C)OC5C(O)C3O)C3COC(=O)C23)OCO4)cc(OC)c1O` (stereo unspecified), the viability, T/C is, setting by setting: (compound 0.0316 µM) 106% and 96.2% and 98%; (compound 0.1 µM) 86.7% and 100% and 103%; (compound 0.316 µM) 60.8% and 83.3% and 80.6%; (compound 1 µM) 53.5% and 62.9% and 58.8%; (compound 3.16 µM) 48.5% and 51% and 43.7%; (compound 10 µM) 39% and 34.7% and 37.7%. For the same compound, the IC50 (curve of compound) was 1410 nM and 2650 nM and 1830 nM.

On to `O=C(C=Cn1cnc(-c2cc(C(F)(F)F)cc(C(F)(F)F)c2)n1)NNc1cnccn1` + Cc1cncc(-c2nc(NCCc3c[nH]c4ccccc34)c3ncn(C(C)C)c3n2)c1, for which the IC50 under setting [1] was found to be 209 nM; the half-inhibitory concentration (IC50) under setting [2] was found to be 242 nM; the IC50 under setting [3] was 229 nM; the IC50 under setting [4] amounted to 196 nM; the IC50 under setting [5] was less than 9.49 nM. Further, the viability, T/C by setting is: (second compound 0.1 µM, first compound 0.00949 µM) 93.8%; (second compound 0.1 µM, first compound 0.03 µM) 94.8%; (second compound 0.1 µM, first compound 0.0949 µM) 73.2%; (second compound 0.1 µM, first compound 0.3 µM) 39.3%; (second compound 0.1 µM, first compound 0.949 µM) 27.4%; (second compound 0.1 µM, first compound 3 µM) 23.6%. Further, the viability, T/C reads like this: (second compound 0.316 µM, first compound 0.00949 µM) 90.8%; (second compound 0.316 µM, first compound 0.03 µM) 95.4%; (second compound 0.316 µM, first compound 0.0949 µM) 72.6%; (second compound 0.316 µM, first compound 0.3 µM) 45.3%; (second compound 0.316 µM, first compound 0.949 µM) 29.2%; (second compound 0.316 µM, first compound 3 µM) 24.8%. Also, the viability, T/C (second compound 1 µM, first compound 0.00949 µM) is 116%; the viability, T/C (second compound 1 µM, first compound 0.03 µM) was 111%; the viability, T/C (second compound 1 µM, first compound 0.0949 µM) is 79.6%; the viability, T/C (second compound 1 µM, first compound 0.3 µM) was 40.6%; the viability, T/C (second compound 1 µM, first compound 0.949 µM) is 26.4%; the viability, T/C (second compound 1 µM, first compound 3 µM) was 19.9%. Moreover, the viability, T/C by setting is: (second compound 3.16 µM, first compound 0.00949 µM) 94.9%; (second compound 3.16 µM, first compound 0.03 µM) 90.6%; (second compound 3.16 µM, first compound 0.0949 µM) 74.7%; (second compound 3.16 µM, first compound 0.3 µM) 35.1%; (second compound 3.16 µM, first compound 0.949 µM) 25.1%; (second compound 3.16 µM, first compound 3 µM) 20.4%. The viability, T/C was 9.12% (second compound 10 µM, first compound 0.00949 µM); 12.6% (second compound 10 µM, first compound 0.03 µM); 17.1% (second compound 10 µM, first compound 0.0949 µM); 16.6% (second compound 10 µM, first compound 0.3 µM); 15.1% (second compound 10 µM, first compound 0.949 µM); 12.8% (second compound 10 µM, first compound 3 µM).
